This note sets out measurements from article PMC10142505, “Synthesis, Evaluation of Enzyme Inhibition and Redox Properties of Potential Dual COX-2 and 5-LOX Inhibitors” (Pharmaceuticals, 2023).

Series [1] has as its target T1, COX-1 ovine enzyme (Ovis aries, UniProt P05979).
T1 construct: purchased Abcam ab204698
T1 sequence (P05979 25-600): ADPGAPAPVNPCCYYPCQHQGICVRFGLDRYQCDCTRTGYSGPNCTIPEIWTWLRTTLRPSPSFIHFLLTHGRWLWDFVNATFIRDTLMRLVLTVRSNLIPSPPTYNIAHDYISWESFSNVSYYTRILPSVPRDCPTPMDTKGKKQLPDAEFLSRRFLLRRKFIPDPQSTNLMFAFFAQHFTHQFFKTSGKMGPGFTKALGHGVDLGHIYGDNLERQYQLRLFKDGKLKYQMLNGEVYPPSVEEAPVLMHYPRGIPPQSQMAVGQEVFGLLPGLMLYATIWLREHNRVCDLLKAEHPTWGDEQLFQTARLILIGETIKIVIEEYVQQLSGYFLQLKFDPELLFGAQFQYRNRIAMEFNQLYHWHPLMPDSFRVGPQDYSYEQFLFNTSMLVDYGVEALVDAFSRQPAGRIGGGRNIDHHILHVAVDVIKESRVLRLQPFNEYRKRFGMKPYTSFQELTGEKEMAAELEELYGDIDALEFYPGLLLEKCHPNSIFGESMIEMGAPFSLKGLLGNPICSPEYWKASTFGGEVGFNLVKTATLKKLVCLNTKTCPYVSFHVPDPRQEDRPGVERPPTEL
The series can be described thus: Fluorometric COX-1 inhibitor screening kit. It counts as biochemical. The conditions noted are these: for inhibition at 100 µM: at 100 µM concentration; for IC50: fluorometric kit. Here is the method: The COX-1 and COX-2 inhibitory activates of the synthesized compounds were tested using fluorometric COX-1 (Catalog Number: ab204698) and COX-2 (Catalog Number: ab283401) inhibitor screening kits (Abcam, United Kingdom). These assays are based on the fluorometric detection of Prostaglandin G2, generated by the COX enzyme. The experiment was conducted according to the manufacturer’s instructions. Each assay consists of a COX Assay Buffer, COX Probe (in DMSO), COX Cofactor (in DMSO), arachidonic acid and NaOH. The COX-1 inhibitor screening kit contains COX-1 ovine enzyme and COX-1 inhibitor SC560 (dissolved in DMSO), while the COX-2 inhibitor screening kit contains COX-2 human recombinant enzyme and COX-2 inhibitor Celecoxib (dissolved in DMSO). The tested compounds were dissolved in DMSO and further diluted five times with the COX Assay Buffer. The Inhibitor Control (IC) was prepared by adding 2 µL of COX-1/COX-2 inhibitor and 8 µL of COX Assay Buffer into assigned wells, while the Solvent Control (SC) was prepared by adding 2 µL of DMSO and 8 µL of COX Assay Buffer into assigned wells and the Sample (S) and Enzyme Control (EC) were prepared by adding 10 µL of diluted tested compounds or COX Assay Buffer into assigned wells. The Reaction Master Mix (COX Assay Buffer, COX Probe, Diluted COX Cofactor and COX-1/COX-2 Enzyme) was prepared according to instructions and 80 µL of the Reaction Master Mix was added into each well. Meanwhile, a diluted arachidonic acid/NaOH solution was prepared and 10 µL was added into each well using a multi-channel pipette to initiate all the reactions at the same time. The fluorescence values (Ex/Em = 535/587 nm) of the samples were kinetically measured at 25 °C for 5–10 min. The EC, SC, IC and tested compounds at all concentrations were analyzed in triplicates. Two points (T1 and T2) in the linear range of the plot were chosen and corresponding fluorescence values (RFU1 and RFU2) were obtained. The slope for all samples was calculated by dividing ΔRFU (RFU2-RFU1) by time Δt (T2−T1). The percentage of inhibition was calculated as follows: % Relative Inhibition=Slope of EC−Slope of S/Slope of EC∗100
Fluorescence measurements were performed on a BioTek Synergy LX multi-mode reader (Winooski, VT, USA).

Each structure is given as a SMILES string. Where only a bound is given, the exact number is not on record here.

For orientation: inhibition means how much of the control response was suppressed. What is called IC50 is the midpoint of a concentration-inhibition curve. As for `COc1ccc2c(c1)c(CNC(=O)NO)c(C)n2C(=O)c1ccc(Cl)cc1` [Compound 1, N’-hydroxy-N-[(1-(4-chlorobenzoyl)-5-methoxy-2-methyl-3-indolyl)methyl]urea], in series [1], the inhibition at 100 µM was under 50% and the IC50 is over 100 µM.

Take `CC(NC(=O)NO)c1ccc(-c2ccccc2)c(F)c1` (stereo not shown) [Compound 2]: in series [1], the inhibition at 100 µM is under 50% and the IC50 was over 100 µM.

Turning to `O=C(NO)NCc1ccccc1Nc1c(Cl)cccc1Cl` [Compound 3, N’-hydroxy-N-[(2-(2,6-dichloroanilino)phenyl)methyl]urea], in series [1], the inhibition at 100 µM was under 50% and the half-maximal inhibitory concentration (IC50) is over 100 µM.

The term melting point denotes the temperature, or range, at which the solid turns liquid. Turning to `COC(=O)C(Cc1c[nH]cn1)NC(=O)c1cc(C(C)(C)C)c(O)c(C(C)(C)C)c1` (stereo not shown) [Compound 4, 2-(3,5-di-tert-butyl-4-hydroxy-benzoylamino)-3-(1H-imidazol-4-yl)-propionic acid methyl ester], the melting point lay within 117 to 119 °C.

Consider `COC(=O)CNC(=O)c1cc(C(C)(C)C)c(O)c(C(C)(C)C)c1` [Compound 5, (3,5-di-tert-butyl-4-hydroxy-benzoylamino)-acetic acid methyl ester], for which the melting point lay in the range of 130 to 132 °C. In series [1], the inhibition at 100 µM is under 50% and the half-inhibitory concentration (IC50) was over 100 µM.

`C=CCNC(=O)c1cc(C(C)(C)C)c(O)c(C(C)(C)C)c1` [Compound 6, N-allyl-3,5-di-tert-butyl-4-hydroxy-benzamide] returned a melting point of 182 to 183.5 °C. Further, in series [1], the inhibition at 100 µM was under 50% and the IC50 is over 100 µM.

In the case of `C#CCNC(=O)c1cc(C(C)(C)C)c(O)c(C(C)(C)C)c1` [Compound 7, 3,5-di-tert-butyl-4-hydroxy-N-prop-2-ynyl-benzamide], the melting point was 178.5 to 180 °C.

As to `CCOc1ccccc1NC(=O)N(C)C` [Compound 8, 3-(2-ethoxy-phenyl)-1,1-dimethyl-urea], the melting point lay in the range of 71.5 to 72.5 °C.

As to `CN(C)C(=O)Nc1ccccc1C(=O)O` [Compound 9, 2-(3,3-dimethyl-ureido)-benzoic acid], the melting point was in the range of 158 to 159.5 °C.

In turn, `CCOc1ccccc1NC(=O)Nc1ccc([N+](=O)[O-])cc1` [Compound 10, 1-(2-ethoxy-phenyl)-3-(4-nitro-phenyl)-urea] registered a melting point of 178 to 181 °C.

Take `CC(=O)N(O)C(C)c1ccc(CC(C)C)cc1` (stereo not shown) [Compound 11]: in series [1], the inhibition at 100 µM was under 50% and the half-inhibitory concentration (IC50) is over 100 µM.

Regarding `COc1ccc2cc(C(C)N(O)C(C)=O)ccc2c1` (stereo not shown) [Compound 12, N-hydroxy-N-[1-(6-methoxy-naphthalen-2-yl)-ethyl]-acetamide], in series [1], the inhibition at 100 µM was under 50% and the IC50 was over 100 µM.

`CC(C)(C)c1cc(C=C2SC(=S)N(N)C2=O)cc(C(C)(C)C)c1O` [Compound 13, 3-amino-5-(3,5-di-tert-butyl-4-hydroxy-benzylidene)-2-thioxo-thiazolidin-4-one] showed a melting point of 244.5 to 246.5 °C.
